Measured values taken from patent US10111901B2, “Beta-glucan in combination with anti-cancer agents affecting the tumor microenvironment” (Biothera, Inc., priority 2014, dated 2018).

Tests used:
Type in all cases: cell-based, human
CD4 T cells = assay: MCM-CD4 T cell proliferation and surface marker study
Method: For MCM-CD4 T cell proliferation study, CD3 & CD28-stimulated, CFSE-labeled CD4 T cells were cultured with 50% MCM. T cell proliferation was measured on day 11 as described above. Culture supernatants of the MCM-CD4 T cell co-culture were collected for subsequent cytokine analysis. MCM-CD4 T cell surface marker evaluation was performed as described above.
To determine whether soluble factors secreted from β-glucan-treated M2 macrophages are required, measurements were carried out of CD4 T cell proliferation co-cultured with β-glucan-treated M2 macrophages MCM (50% of volume) and surface activation marker modulation on T cells incubated with the MCM were observed. FIG. 9 is representative of 2 different experiments. […] In addition, the CD4 T cells cultured in vehicle- and β-glucan-treated M2 macrophage MCM were evaluated for modulation of co-stimulatory or co-inhibitory molecules (CD80, CD28, CTLA-4, 4-1BB and PD-1).
To test this, M2 macrophages were prepared as described above with a few modifications. The whole blood of a low binder was spun down to remove the plasma and then the cells were reconstituted with serum obtained from a high binder. The reconstituted blood was treated with vehicle or β-glucan (25 μg/mL) for 2 hours at 37° C. The monocytes were evaluated for binding by using anti-β-glucan specific monoclonal antibody and subsequent flow cytometry.

CD4 and CD8 T cells = assay: Allogeneic mixed lymphocyte reaction (allo-MLR) with mMoDC
IFN-γ = IFN-γ ELISA of co-culture supernatants
Method: CD14^+ monocytes from human whole blood were enriched using Ficoll gradient and magnetic bead separation. Enriched monocytes (5×10^5 cells per mL) were then cultured in either M1-polarizing (XVivo 10 media (Lonza Group) supplemented with 5% autologous serum and 100 ng/mL recombinant human granulocyte macrophage colony-stimulating factor (rhGM-CSF) (R&D Systems) or M2-polarizing (XVivo 10 media supplemented with 10% autologous serum and 50 ng/mL recombinant human macrophage colony-stimulating factor (rhM-CSF) (R&D Systems) conditions for 6 days. In experiments performed to evaluate the effect of β-glucan, whole blood was first incubated with vehicle (sodium citrate buffer) or 25 μg/mL soluble β-glucan for 2 hours at 37° C. and then the monocytes were isolated and differentiated. Morphology was checked before macrophages were harvested for phenotypic analysis. Culture medium of the day 6 macrophage culture (MCM) was collected, spun down to remove contaminated cell pellet and then frozen down for subsequent cytokine analysis by ELISA or used to setup a co-culture with CD3 & CD28-stimulated CD4 T cells (MCM-CD4 T) for evaluation of either surface markers or CD4 T cell proliferation. The macrophages were used to setup a co-culture with CD3 & CD28- or CD3 only-stimulated CD4 T cells (Mac-CD4 T) on day 6 for evaluation of either surface marker modulation or effect on CD4 T cell proliferation. For Mac-CD4 T cell proliferation study, M1 or M2 macrophages were cultured with CD3 & CD28- or CD3 only-stimulated, CFSE-labeled, autologous CD4 T cells at a 1:10 ratio. T cell proliferation was measured at the end of the experiment (day 9-day 11) by flow cytometry, and results are graphically shown as CFSE-dilution peaks. The assessment of CD3-only stimulated T cells was always done on day 11. Quantitative results were reported as the Division Index (the average number of cell divisions a population underwent) calculated for each of the triplicate wells in each of the culture conditions. Culture supernatants of Mac-CD4 T co-cultures were collected for subsequent cytokine analysis.
The culture supernatants from the CFSE dilution T-cell proliferation assay (FIG. 2B) were also measured for IFN-gamma levels by ELISA. […] Thus, β-glucan affects M2 to M1 repolarization and drives anti-tumorigenic Th1 polarization.
Modulation of IFN-γ and IL-4 production of vehicle- and β-glucan-treated M2 macrophages was then evaluated. […] Thus, M2 macrophages derived from β-glucan-treated monocytes are M1-like in high binder subjects.
M2 macrophages from 4 high binders and 4 low binders were prepared and evaluated for their ability to modulate CD4 T cell proliferation. The supernatants from the various CD4 T cell proliferation conditions were measured for IFN-γ by ELISA. Results shown in FIG. 10 are representative from 4 different experiments. Fold change over the IFN-γ levels produced in the co-cultures of vehicle-treated M2 macrophages and CD4 T cells are plotted for each of the 4 donors.

mMoDC = assay: Flow cytometry of maturation markers on mature monocyte-derived dendritic cells (mMoDC)
Method: Given that macrophages and dendritic cells are the two key antigen presenting cell types that bridge innate and adaptive immunity, the phenotypic and functional effect of soluble β-glucan was also evaluated on human monocyte-derived dendritic cells (MoDC). Monocytes enriched from soluble β-glucan- or vehicle-treated whole blood were cultured in media containing the appropriate cytokines, GM-CSF plus IL-4, for differentiation of dendritic cells. Steps included in the method for in vitro culture and characterization of human MoDCs are outlined below.
The phenotypic and functional evaluation of mMoDC prepared from soluble β-glucan-treated whole blood of a high binder and low binder was carried out. mMoDCs from a high binder and a low binder were prepared as described above. mMoDCs were evaluated for CD80, CD83, CD86 and HLA-DR expression by flow cytometry, and median MFI was calculated for isotype control staining and surface antigen staining and the results are shown in Table 7.
MoDC derived from β-glucan-treated monocytes are more mature even in immunosuppressive conditions. MoDCs were prepared as described above. TCM was added to account for 70% of the volume of the culture on day 0 and was present throughout the culturing period. mMoDCs cultured in the presence of TCM were subsequently evaluated for phenotypic changes.

CD33+CD11b+ cells (MDSC) = assay: Suppression of T cell proliferation by cord blood-derived MDSC; conditions: 2:1 ratio of CD8 T cells to MDSCs, vs citrate buffer
Method: In another study, human cord blood was enriched for CD34^+ cells and cultured for 9 days to produce CD33^+CD11b^+ cells (MDSC). The MDSC were then treated with soluble β-glucan or citrate buffer (control) and evaluated for their ability to suppress T cell proliferation. The T cell proliferation assay was carried out at a 2:1 ratio of CD8 T cells to treated or untreated MDSCs.

[1] = MoDC cultured in TCM, immunosuppressive conditions

## β(1,6)-[poly-(1,3)-D-glucopyranosyl]-poly-β(1,3)-D-glucopyranose [β-glucan]
CD4 T cells; CD4 T cells cultured in β-glucan-treated M2 macrophage MCM (data not shown)
  T cell markers (CD80, CD28, CTLA-4, 4-1BB and PD-1): no change
CD4 T cells; MCM of M2 macrophages of a low binder crossed-over with high binder's serum, 25 μg/mL
  CD4 T cell proliferation: significantly higher ability to enhance
CD4 T cells; β-glucan-treated M2 macrophage MCM (50% of volume) vs vehicle-treated MCM
  CD4 T cell proliferation: significantly higher ability to enhance
CD4 and CD8 T cells; β-glucan-treated mMoDC from high binders
  immunogenicity in allo-MLR (CD4 and CD8 T cell expansion): increased immunogenicity
CD4 and CD8 T cells; β-glucan-treated mMoDC from high binders vs low binders and vehicle-treated mMoDCs
  IFN-γ production: able to modulate IFN-γ production
IFN-γ; M2 macrophage-CD4 T co-culture, FIG. 2D
  IFN-gamma levels in culture supernatants: concomitant increase in IFN-gamma production
IFN-γ; co-cultures of β-glucan-treated M2 macrophages and CD4 T cells, high binders
  IFN-γ production: significantly increased production
IFN-γ; co-cultures under immunosuppressive conditions (TCM, IL-4), FIG. 4
  IFN-γ production: significantly increased production
IFN-γ; co-cultures without exogenous CD28 antibody, FIG. 8B
  IFN-γ production: significantly increased production
IFN-γ; low binder crossed-over with high binder's serum, FIG. 11B
  IFN-γ production: significantly increased production
IFN-γ; β-glucan-treated M2 macrophages, low binders
  IFN-γ production: nor increased IFN-γ production
mMoDC; MoDC cultured in TCM (70% of volume, from day 0), immunosuppressive conditions
  CD80 median MFI: 465
mMoDC; [1]
  CD83 median MFI: 607
  CD86 median MFI: 15797
  HLA-DR median MFI: 361
mMoDC; mMoDCs, high binder
  CD80 median MFI: 744
  CD83 median MFI: 466
  CD86 median MFI: 10759
  HLA-DR median MFI: 7049
mMoDC; mMoDCs, low binder
  CD80 median MFI: 1197
  CD83 median MFI: 2924
  CD86 median MFI: 77749
  HLA-DR median MFI: 2960
CD33+CD11b+ cells (MDSC)
  suppression of T cell proliferation by MDSC: less suppressive
